Results reported in US9289471B2, “Product and process for liquefaction of mucus or sputum” (National Jewish Health, priority 2002, dated 2016).

Tests used:
[1] = Magnetic microrheometry: viscoelasticity (log G*) of CF sputum; design: species or system human; settings: for decrease in log G* (before minus after exposure): 20 min (FIG. 4A); for log G* after treatment: 37° C., 20 minutes; for log G* after treatment / log G* before treatment: mean ± standard error; for decline in viscoelasticity (log G*): Trx (30 μM), TR (0.1 μM); for log G* before treatment: baseline, 4 samples
Experimental: Viscoelastic change in response to treatment was measured by means of a magnetic microrheometer as developed by King (King M., Magnetic microrheometer. In: Methods in Bronchial Mucology, edited by Braga P C, and Allegra L. New York: Raven Press, 1988, p. 73-83). An 80-120 μm steel sphere was placed in a 10 mg sputum sample. An electromagnet was used to oscillate this sphere, whose image was projected onto a pair of photocells via a microscope. […] G* was the mechanical impedance or vector sum of viscosity and elasticity. For Trx and NADPH dose response experiments, log G* at 10 rad/s was measured before any treatment (baseline), and then after 20 minute incubation with no treatment, diluent (H2O), or Trx with reducing system. All treatments were administered to the sample in a volume of H2O equal to 10% of total sample volume. One measurement was performed per aliquot of sample.
Magnetic microrheometry was performed to determine the effect of Trx and its reducing system on sputum viscosity. Measurements were performed on sputum samples before and after incubation with the Trx reducing system (Table 1) to determine the change in log G* (viscoelasticity).
In the experiment shown in FIG. […] Each column represents the mean±standard error for 4 samples (♦Statistically significant from H2O diluent value). […]

DNA in CF sputum = test: Total DNA content of sputum gel and liquid phases by Hoechst assay; design: species or system human; settings: Trx (30 μM) + reducing system, 20 min, mean ± S.D., n=5 (FIG. 6)
Experimental: 275 μl of CF sputum was incubated with no treatment, 25 μl of H2O, or 25 μl of H2O containing Trx (30 μM)+TR (0.1 μM) and NADPH (2 mM). After 20 minute incubation at 37° C., 100 μl of H2O was added to each sample, followed by centrifugation (22,000×g) for 10 minutes. Resulting gel and liquid phases were separated and incubated with an equal volume of digestion solution consisting of 100 mM Tris Cl, 5 mM EDTA, 200 mM NaCl, 0.5% Tween 20, and 1 mg/ml proteinase K for 4 hours at 50° C. DNA was purified from liquid and gel phases by phenol/chloroform extraction and resuspended in 100 μl of TE buffer, pH 8.0. DNA concentrations were determined by Hoechst assay (Labarca and Paigen, Anal Biochem 102:344-352, 1980) using an F-2000 fluorometer (Hitachi, Schaumburg, Ill.) with an excitation wavelength of […] and an emission wavelength of 555 nm. Salmon testis DNA, dissolved in TE buffer, was used to establish the standard curve.
The presence of high amounts of extracellular DNA in CF airway secretions contributes to the excessive viscoelasticity of CF sputum. To evaluate what effect Trx has on the solubility of DNA in sputum, sputum samples (275 μl) were incubated with either no additions, diluent (H2O), or Trx (30 μM)+reducing system for 20 minutes, and then separated into gel (insoluble) and liquid (soluble) phases. […]

Substance: Trx: Lyophilized recombinant E. coli Trx from Promega; protein disulfide reductase, used with its reducing system (TR + NADPH)
- decrease in log G* (before minus after exposure) ([1]; 3 μM Trx + 0.1 μM TR + 2 mM NADPH): 0.26 log units
- log G* after treatment ([1]; 3 μM Trx + 0.1 μM TR and 2 μM NADPH): 3.11 ± 0.04
- decrease in log G* (before minus after exposure) ([1]; 10 μM Trx + 0.1 μM TR + 2 mM NADPH): 0.39 log units
- log G* after treatment ([1]; 10 μM Trx + 0.1 μM TR and 2 μM NADPH): 2.94 ± 0.05
- decrease in log G* (before minus after exposure) ([1]; 30 μM Trx + 0.1 μM TR + 2 mM NADPH): 0.65 log units
- log G* after treatment ([1]; 30 μM Trx + 0.1 μM TR and 2 μM NADPH): 2.63 ± 0.04
- sputum viscoelasticity ([1]; 20 minute treatment with 3, 10, or 30 μM Trx): significantly diminished
- decline in viscoelasticity (log G*) ([1]; 0.2 mM NADPH (FIG. 4B)): 0.16 log units
- decline in viscoelasticity (log G*) ([1]; 0.6 mM NADPH (FIG. 4B)): 0.26 log units
- decline in viscoelasticity (log G*) ([1]; 2 mM NADPH (FIG. 4B)): 0.39 log units
- log G* before treatment ([1]; aliquots for 3 μM Trx): 3.37 ± 0.06
- log G* before treatment ([1]; aliquots for 10 μM Trx): 3.33 ± 0.06
- log G* before treatment ([1]; aliquots for 30 μM Trx): 3.28 ± 0.04
- DNA content of gel (insoluble) phase (DNA in CF sputum): 0.55 ± 0.31 mg
- DNA content of liquid (soluble) phase (DNA in CF sputum): 0.57 ± 0.37 mg
